Data on 6 substances can be found in patent US20170184612A1, “USE OF LEUKOCYTES AND NOVEL BIOMARKERS IN THE DIAGNOSIS, CONFIRMATION, AND TREATMENT OF A NEUROLOGICAL DISORDER” (The Trustees of Columbia University in the City of New York, priority 2014, published 2017).

Assay [1] has as its system peripheral blood mononuclear cells (PBMC), T cells. The assay can be described thus: ELISpot assay, IL-5 release (SFC) after stimulation with a-synuclein epitope pools. In kind it is cell-based, human. As to conditions: for IL-g Peptide + (donors positive to the peptide): of donors tested (peptide); for IL-g Peptide +: number of donors positive to the single peptide. An outline of the steps: (§1)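 Samples came from 44 PD patients and 24 matched controls, tested blindly. Their PBMC were stimulated for 22 hours at 37 C with α-synuclein peptide pools, and pools that responded were resolved into individual epitopes.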

Assay [2] shares this test system. The assay can be described thus: ELISpot assay, gamma-interferon release (SFC) after stimulation with a-synuclein epitope pools. In kind it is cell-based, human. As to conditions: for Pool +: IFNg, Pool Stimulated, number of donors with a positive response, Donors tested 1; for IFNg Peptide + (donors positive to the peptide): of donors tested (peptide); for IFNg Peptide +: number of donors positive to the single peptide. An outline of the steps:
as §1

Setting [3] is: Patients Summary, PD patients, single peptide.
The mark [4] stands for this setting: second 'Pool Stimulated' section (from r296), 12 donors tested.
[5] abbreviates: peptide + / donors tested (peptide), second 'Pool Stimulated' section (from r296), 12 donors tested.
The mark [6] stands for this setting: single peptide, second 'Pool Stimulated' section (from r296), 12 donors tested.

As for “3521.0031 (YVGSKTKEGV; listed as Homo sapiens)”, the “IL-g Peptide + (donors positive to the peptide)” value in assay [1] (Patients Summary, PD patients) is given as 0. For the same substance, in assay [1] (setting [3]), the “IL-g Response Frequency” value is reported as 0% and the “IL-g Total SFC” value stood at 0 SFC. In addition, the “Pool +” value in assay [2] is reported as 0. The “IFNg Peptide + (donors positive to the peptide)” value in assay [2] (Patients Summary, PD patients) was determined as 1. Besides, in assay [2] (setting [3]), the “IFNg Avg SFC” value came out at 153 SFC, the “IFNg Response Frequency” value stood at 17% and the “IFNg Total SFC” value is on record as 153 SFC.
Take “3521.0032 (GAVVTGVTAV; listed as Homo sapiens)”: the “IL-g Peptide + (donors positive to the peptide)” value in assay [1] (Patients Summary, PD patients) was 0. Besides, the “IL-g Response Frequency” value in assay [1] (setting [3]) and in assay [1] (setting [5]) was 0% each time. Also, the “IL-g Total SFC” value in assay [1] (setting [3]) and in assay [1] (setting [6]) was 0 SFC throughout. Further, the “IL-g Peptide +” value in assay [1] (setting [4]) was 0. For the same substance, the “Pool +” value in assay [2] came to 1. Moreover, the “IFNg Peptide + (donors positive to the peptide)” value in assay [2] (Patients Summary, PD patients) is 0. In addition, the “IFNg Response Frequency” value in assay [2] (setting [3]) and in assay [2] (setting [5]) was 0% in each case. Besides, the “IFNg Total SFC” value in assay [2] (setting [3]) and in assay [2] (setting [6]) was 0 SFC each time. In addition, in assay [2] (setting [4]), the “IFNg Peptide +” value is recorded as 0.
In the case of “3521.0033 (VLYVGSKTKK; listed as Homo sapiens)”, the “IL-g Peptide + (donors positive to the peptide)” value in assay [1] (Patients Summary, PD patients) turned out to be 3. Further, in assay [1] (setting [3]), the “IL-g Avg SFC” value amounted to 176 SFC, the “IL-g Response Frequency” value was 50% and the “IL-g Total SFC” value is 528 SFC. The “Pool +” value in assay [2] was 1. For the same substance, in assay [2] (Patients Summary, PD patients), the “IFNg Peptide + (donors positive to the peptide)” value is on record as 5. In assay [2] (setting [3]), the “IFNg Avg SFC” value was found to be 325 SFC, the “IFNg Response Frequency” value is 83% and the “IFNg Total SFC” value is listed as 1626 SFC.
In the case of “3521.0034 (GVLYVGSKTK; listed as Homo sapiens)”, in assay [1] (Patients Summary, PD patients), the “IL-g Peptide + (donors positive to the peptide)” value turned out to be 2. In addition, in assay [1] (setting [3]), the “IL-g Avg SFC” value was determined as 142 SFC, the “IL-g Response Frequency” value is recorded as 33% and the “IL-g Total SFC” value came out at 284 SFC. For the same substance, the “Pool +” value in assay [2] is recorded as 1. The “IFNg Peptide + (donors positive to the peptide)” value in assay [2] (Patients Summary, PD patients) is on record as 5. In addition, in assay [2] (setting [3]), the “IFNg Avg SFC” value was determined as 452 SFC, the “IFNg Response Frequency” value is listed as 83% and the “IFNg Total SFC” value came to 2260 SFC.
Turning to “3521.0035 (SIAAATGFVK; listed as Homo sapiens)”, in assay [1] (Patients Summary, PD patients), the “IL-g Peptide + (donors positive to the peptide)” value is recorded as 1. Moreover, the entries for the “IL-g Avg SFC” value in assay [1] (setting [3]) and in assay [1] (setting [6]) were 1898 SFC and 536 SFC, respectively. Moreover, the “IL-g Response Frequency” value stood at 25% in assay [1] (setting [3]) and 50% in assay [1] (setting [5]). The “IL-g Total SFC” value in assay [1] (setting [3]) is 1898 SFC; in assay [1] (setting [6]), 536 SFC. Also, the “IL-g Peptide +” value in assay [1] (setting [4]) is 1. Also, the “Pool +” value in assay [2] was found to be 1. In addition, the “IFNg Peptide + (donors positive to the peptide)” value in assay [2] (Patients Summary, PD patients) is reported as 1. Further, the “IFNg Avg SFC” value in assay [2] (setting [3]) worked out at 1946 SFC. In addition, the “IFNg Response Frequency” value in assay [2] (setting [3]) worked out at 25%; in assay [2] (setting [5]) it was 0%. In addition, the “IFNg Total SFC” value in assay [2] (setting [3]) is given as 1946 SFC; in assay [2] (setting [6]), 0 SFC. Further, the “IFNg Peptide +” value in assay [2] (setting [4]) was 0.
Take “3521.0036 (AGSIAAATGF; listed as Homo sapiens)”: in assay [1] (Patients Summary, PD patients), the “IL-g Peptide + (donors positive to the peptide)” value is given as 0. The “IL-g Response Frequency” value in assay [1] (setting [3]) and in assay [1] (setting [5]) was 0% in each case. Besides, the “IL-g Total SFC” value in assay [1] (setting [3]) and in assay [1] (setting [6]) was 0 SFC throughout. In addition, the “IL-g Peptide +” value in assay [1] (setting [4]) worked out at 0. The “Pool +” value in assay [2] is 0. The “IFNg Peptide + (donors positive to the peptide)” value in assay [2] (Patients Summary, PD patients) came to 0. Besides, the “IFNg Response Frequency” value in assay [2] (setting [3]) and in assay [2] (setting [5]) was 0% each time. For the same substance, the “IFNg Total SFC” value in assay [2] (setting [3]) and in assay [2] (setting [6]) was 0 SFC in each case. Moreover, the “IFNg Peptide +” value in assay [2] (setting [4]) is listed as 0.
